ChEMBL document CHEMBL5512632, “Unlocking the potential of 1,4-naphthoquinones: A comprehensive review of their anticancer properties” (Eur J Med Chem, 2024)
≈ marks a conversion by molar mass, not a printed value. One block for each compound: values may come before it.

Experiments:
LOX IMVI = assay: Antiproliferative activity against human LOX IMVI cells assessed as inhibition of cell growth incubated for 24 to 48 hrs by SRB assay; type: functional, cell-based
HCT-116 [1] = assay: Antiproliferative activity against human HCT-116 cells assessed as inhibition of cell growth incubated for 72 hrs by MTT assay; type: functional, cell-based; conditions: HCT-116, 72 h
[2] = Antiproliferative activity against human KB-ChR-8-5-11 cells assessed as inhibition of cell growth incubated for 72 hrs by MTT assay; type: functional, cell-based; conditions: KB-ChR-8-5-11, 72 h
THP-1 = assay: Antiproliferative activity against human THP-1 cells assessed as inhibition of cell growth incubated for 72 hrs by MTT assay; type: functional, cell-based; conditions: THP-1, 72 h
MCF7 [3] = assay: Antiproliferative activity against human MCF7 cells assessed as inhibition of cell growth incubated for 72 hrs by MTT assay; type: functional, cell-based; conditions: MCF7, 72 h
Jurkat = assay: Antiproliferative activity against human Jurkat cells assessed as inhibition of cell growth incubated for 72 hrs by MTT assay; type: functional, cell-based
J774.2 = assay: Antiproliferative activity against mouse J774.2 cells assessed as inhibition of cell growth incubated for 72 hrs by MTT assay; type: functional, cell-based; conditions: J774.2, 72 h
HepG2 [4] = assay: Antiproliferative activity against human HepG2 cells assessed as inhibition of cell growth incubated for 24 hrs by MTT assay; type: functional, cell-based; conditions: HepG2, 24 h
MCF7 [5] = assay: Antiproliferative activity against human MCF7 cells assessed as inhibition of cell growth incubated for 24 hrs by MTT assay; type: functional, cell-based; conditions: MCF7, 24 h
HeLa [6] = assay: Antiproliferative activity against human HeLa cells assessed as inhibition of cell growth incubated for 24 hrs by MTT assay; type: functional, cell-based
HL-60 [7] = assay: Antiproliferative activity against human HL-60 cells assessed as inhibition of cell growth incubated for 72 hrs by MTT assay; type: functional, cell-based; conditions: HL-60, 72 h
MDA-MB-435 = assay: Antiproliferative activity against human MDA-MB-435 cells assessed as inhibition of cell growth incubated for 72 hrs by MTT assay; type: functional, cell-based; conditions: MDA-MB-435, 72 h
OVCAR-8 = assay: Antiproliferative activity against human OVCAR-8 cells assessed as inhibition of cell growth incubated for 72 hrs by MTT assay; type: functional, cell-based; conditions: OVCAR-8, 72 h
[8] = Antiproliferative activity against human NCI-H358M cells assessed as inhibition of cell growth incubated for 72 hrs by MTT assay; type: functional, cell-based
PC-3M = assay: Antiproliferative activity against human PC-3M cells assessed as inhibition of cell growth incubated for 72 hrs by MTT assay; type: functional, cell-based
SF-295 = assay: Antiproliferative activity against human SF-295 cells assessed as inhibition of cell growth incubated for 72 hrs by MTT assay; type: functional, cell-based; conditions: SF-295, 72 h
HCT-8 = assay: Antiproliferative activity against human HCT-8 cells assessed as inhibition of cell growth incubated for 72 hrs by MTT assay; type: functional, cell-based; conditions: HCT-8, 72 h
HT-29 = assay: Antiproliferative activity against human HT-29 cells assessed as inhibition of cell growth incubated for 72 hrs by MTT assay; type: functional, cell-based; conditions: HT-29, 72 h
MOLT-4 = assay: Antiproliferative activity against human MOLT-4 cells assessed as inhibition of cell growth incubated for 72 hrs by MTT assay; type: functional, cell-based; conditions: MOLT-4, 72 h
[9] = Antiproliferative activity against human NCI-H322T cells assessed as inhibition of cell growth incubated for 48 hrs by MTT assay; type: functional, cell-based
A549 = assay: Antiproliferative activity against human A549 cells assessed as inhibition of cell growth incubated for 48 hrs by MTT assay; type: functional, cell-based; conditions: A549, 48 h
HepG2 [10] = assay: Antiproliferative activity against human HepG2 cells assessed as inhibition of cell growth incubated for 48 hrs by MTT reagent based colorimetric assay; type: functional; conditions: HepG2, 48 h
HeLa [11] = assay: Antiproliferative activity against human HeLa cells assessed as inhibition of cell growth incubated for 48 hrs by MTT reagent based colorimetric assay; type: functional
HL-60 [12] = assay: Antiproliferative activity against human HL-60 cells assessed as inhibition of cell growth incubated for 72 hrs by MTT reagent based spectral analysis; type: functional; conditions: HL-60, 72 h
KB = assay: Antiproliferative activity against human KB cells assessed as inhibition of cell growth incubated for 72 hrs by MTT assay; type: functional, cell-based
HepG2 [13] = assay: Antiproliferative activity against human HepG2 cells assessed as inhibition of cell growth incubated for 72 hrs by MTT assay; type: functional, cell-based; conditions: HepG2, 72 h
SiHa = assay: Antiproliferative activity against human SiHa cells; type: functional, cell-based
DU-145 = assay: Antiproliferative activity against human DU-145 cells assessed as inhibition of cell growth incubated for 72 hrs by MTT assay; type: functional, cell-based; conditions: DU-145, 72 h
NCI-H460 = assay: Antiproliferative activity against human NCI-H460 cells assessed as inhibition of cell growth incubated for 72 hrs by MTT assay; type: functional, cell-based; conditions: NCI-H460, 72 h
MDA-MB-231 [14] = assay: Cytotoxicity against human MDA-MB-231 cells incubated for 48 hrs by MTT assay; type: functional, cell-based; conditions: MDA-MB-231, 48 h
HCT-15 = assay: Cytotoxicity against human HCT-15 cells incubated for 48 hrs by MTT assay; type: functional, cell-based; conditions: HCT-15, 48 h
HCT-116 [15] = assay: Cytotoxicity against human HCT-116 cells incubated for 48 hrs by MTT assay; type: functional, cell-based; conditions: HCT-116, 48 h
Bel-7402 = assay: Cytotoxicity against human Bel-7402 cells incubated for 48 hrs by MTT assay; type: functional, cell-based; conditions: Bel-7402, 48 h
MDA-MB-231 [16] = assay: Antiproliferative activity against human MDA-MB-231 cells assessed as inhibition of cell growth incubated for 72 hrs by trypan blue exclusion assay; type: functional, cell-based; conditions: MDA-MB-231, 72 h
DBTRG-05MG = assay: Antiproliferative activity against human DBTRG-05MG cells assessed as inhibition of cell growth incubated for 72 hrs by cell counting kit method; type: functional, cell-based; conditions: dbtrg-05mg

Compound: COc1cc(C2C3=C(Sc4[nH]c(=O)sc42)C(=O)c2ccccc2C3=O)ccc1O (stereo not given)
- IC50 (LOX IMVI): 0.16 µM

Compound: O=C1C2=C(C(=O)c3ccccc31)C(CCc1ccccc1)c1sc(=O)[nH]c1S2 (stereo not given)
- IC50 (HCT-116 [1]): 6.37 µM
- IC50 [2]: 12.8 µM
- IC50 (THP-1): 7.94 µM
- IC50 (MCF7 [3]): 8.94 µM
- IC50 (Jurkat): 0.76 µM
- IC50 (J774.2): 9.57 µM

Compound: O=C1C=C(SCCC(=O)N2CCN(c3ccccc3F)CC2)C(=O)c2ccccc21
- IC50 (HepG2 [4]): 18.7 µM
- IC50 (MCF7 [5]): 16.1 µM
- IC50 (HeLa [6]): 13 µM

Compound: COc1cc(C2C3=C(Nc4cc5c(cc42)OCO5)C(=O)c2ccccc2C3=O)cc(OC)c1OC (stereo not given)
- IC50 (HepG2 [10]): 14.6 µM
- IC50 (HeLa [11]): 26.8 µM

Compound: CSc1ccc(-c2c(-c3ccc(SC)cc3)n3c4c(c(-c5ccc(SC)cc5)c3c3ccc(SC)cc23)C(=O)c2ccccc2C4=O)cc1
- IC50 (HL-60 [12]): 2.92 µM

Compound: O=C1OCC2=C1C(c1ccc(Oc3ccc(F)cc3)cc1)C1=C(N2)C(=O)c2ccccc2C1=O (stereo not given)
- IC50 (KB): 0.6 µM
- IC50 (MCF7 [3]): 2.12 µM
- IC50 (HepG2 [13]): 1.05 µM

Compound: O=C(Nc1ccc(S(=O)(=O)c2ccc3[nH]c4c(c3c2)C(=O)c2ccccc2C4=O)cc1)c1cc([N+](=O)[O-])cc([N+](=O)[O-])c1
- IC50 (SiHa): 20 µg/mL (≈ 33.5 µM)

Compound: C=CC(C)(C)C(OCCCCCCO)c1cc(OC)c2c(c1OC)/C(=N\O)C=C/C2=N\O (stereo not given)
- IC50 (MDA-MB-231 [14]): 8.46 µM
- IC50 (HCT-15): 30.2 µM
- IC50 (HCT-116 [15]): 23.5 µM
- IC50 (Bel-7402): 6.53 µM

Compound: SODIUM ORTHOVANAD
- IC50 (DBTRG-05MG): 25 µM

Now from value to compound, other results behind:

- IC50 (HCT-116 [1]): 4.52 µM
- IC50 (HL-60 [7]): 4.27 µM
- IC50 (MDA-MB-435): 1.99 µM
- IC50 (OVCAR-8): 9.61 µM
- IC50 (PC-3M): 6.55 µM
- IC50 (HCT-8): 3.38 µM
Compound: C[C@H](NC1=CC(=O)c2ccccc2C1=O)C(=O)O
- IC50 [8]: 3.36 µM
- IC50 (SF-295): 2.56 µM

- IC50 (HT-29): 6.8 µM
- IC50 (MOLT-4): 8.4 µM
- IC50 (MCF7 [3]): 10.4 µM
Compound: Cc1ccc(Cn2cc(CNC3=CC(=O)c4ccccc4C3=O)nn2)cc1

- IC50 (A549): 4.67 µM
Compound: N#Cc1ccccc1-n1cc(COc2cccc3c2C(=O)C=CC3=O)nn1
- IC50 [9]: 7.94 µM

- IC50 (A549): 6.15 µM
Compound: O=C1C=C(Nc2cccc(F)c2)C(=O)c2ccccc21

- IC50 (HCT-116 [1]): 0.46 µM
- IC50 (MDA-MB-435): 0.56 µM
- IC50 (OVCAR-8): 0.85 µM
- IC50 (MCF7 [3]): 0.58 µM
- IC50 (Jurkat): 0.31 µM
- IC50 (DU-145): 0.38 µM
- IC50 (NCI-H460): 0.38 µM
Compound: COc1ccc(N(Cc2cn(S(=O)(=O)c3ccc(C)cc3)nn2)C2=CC(=O)c3ccccc3C2=O)cc1
- IC50 (SF-295): 0.42 µM

- IC50 (MDA-MB-231 [16]): 7.5 µM
Compound: COC1=CC(=O)c2ccccc2C1=O [2-Methoxy-1,4-naphthoquinone]
